# Laboratory results as given in publication PMC6380468, “Investigations on small molecule inhibitors targeting the histone H3K4 tri-methyllysine binding PHD-finger of JmjC histone demethylases” (Bioorganic & Medicinal Chemistry, 2018).
# How the values were obtained:
# [1] = AlphaScreen biotin-His6 counterscreen; conditions: AlphaScreen interference counterscreen with biotin-His6; unit inferred; DNC = data did not converge to binding model; NM = not measurable within the solubility range
# KDM5A_c1 (M1-L801) = target: T1, KDM5A_c1 (M1-L801) (Homo sapiens, UniProt P29375); test: MALDI-TOF MS H3K4me3 demethylation assay, KDM5A_c1; format: biochemical; conditions: average ± StdDev of n = 2, read-out: IC50, inhibition of H3K4me3 demethylation activity, KDM5A_c1
# T1 construct: made in house
# T1 sequence (P29375 1-801): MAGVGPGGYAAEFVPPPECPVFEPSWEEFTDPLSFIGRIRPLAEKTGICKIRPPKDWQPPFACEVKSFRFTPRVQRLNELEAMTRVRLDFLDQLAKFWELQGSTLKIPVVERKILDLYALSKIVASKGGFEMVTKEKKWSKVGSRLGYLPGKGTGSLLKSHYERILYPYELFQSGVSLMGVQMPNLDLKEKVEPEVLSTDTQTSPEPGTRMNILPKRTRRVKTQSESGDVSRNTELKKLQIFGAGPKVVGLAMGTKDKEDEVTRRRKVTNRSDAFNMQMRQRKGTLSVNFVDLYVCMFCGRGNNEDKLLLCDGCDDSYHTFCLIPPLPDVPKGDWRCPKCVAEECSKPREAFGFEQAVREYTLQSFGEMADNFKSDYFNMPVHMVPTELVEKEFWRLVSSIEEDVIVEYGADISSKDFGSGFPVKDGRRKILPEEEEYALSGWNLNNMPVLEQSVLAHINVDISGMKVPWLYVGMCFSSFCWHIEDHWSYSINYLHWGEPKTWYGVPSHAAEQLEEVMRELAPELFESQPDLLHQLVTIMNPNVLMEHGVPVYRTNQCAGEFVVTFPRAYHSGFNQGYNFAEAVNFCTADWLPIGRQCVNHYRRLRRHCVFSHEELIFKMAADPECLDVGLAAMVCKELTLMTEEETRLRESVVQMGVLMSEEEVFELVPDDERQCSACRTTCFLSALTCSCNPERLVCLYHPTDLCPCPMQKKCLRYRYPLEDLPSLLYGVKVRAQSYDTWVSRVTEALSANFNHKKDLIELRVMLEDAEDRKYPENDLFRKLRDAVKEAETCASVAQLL
# Protocol: Two catalytically active constructs of KDM5A were employed, KDM5A_c1 (M1-L801) and KDM5A_c2 (ΔARID/PHD1, P13-S744 with L88-G353 (ARID/PHD1) replaced with a GGGG linker) and both KDM5A_c1 and KDM5A_c2 constructs lack the PHD2 and PHD3. […] A MALDI-TOF MS assay was used to measure the activity of H3K4me3 demethylation in the presence of inhibitors (Table 2, Fig. 3C and D).
# The KDM5A mixture (5 µL, KDM5A-c1: 1.0 µM or KDM5A-c2: 0.5 µM) was pre-incubated with 100 nL inhibitors (in DMSO) for 10 min. […] The mixture was quenched using formic acid (5 µL, 1 v/v% in MQ) after 4 minutes (KDM5A-c1) or 3 minutes (KDM5A-c2). The stopped reaction (1 µL) was mixed with […] (CHCA) MALDI matrix (saturated solution in TFA (0.1%) in MilliQ water and trifluoroacetic acid (0.1%) acetonitrile (1:1)) at 1:1 ratio (2 µL), air dried and analysed using Bruker microflex MALDI-TOF controlled with FlexControl. The data were further processed using FlexAnalysis and excel.
# KDM7B (PHD-JmjC) = target: T2, KDM7B (PHD-JmjC) (Homo sapiens, UniProt Q9UPP1); test: AlphaScreen displacement of H3K4me3-Bn from His-KDM7B(PHD-JmjC); format: binding; conditions: AlphaScreen displacement of H3K4me3-Bn; n = 3; NI = No inhibition seen at 100 μM; read-out: IC50 KDM7B (PHD-JmjC) (Displacement)
# T2 construct: A dual-domain construct of KDM7A/B(PHD-JmjC), consisting of a JmjC domain in addition to the PHD-finger; His; made in house
# Protocol: A dual-domain construct of KDM7A/B(PHD-JmjC), consisting of a JmjC domain in addition to the PHD-finger (Fig. 1B), was used to test for allosteric inhibition through binding at the PHD-finger.
# For peptide displacement assays, 5 µL of the inhibitor dilution series (at a concentration of 4% DMSO in AlphaScreen assay buffer) was pre-incubated with 5 µL of the protein at RT for 15 minutes. Peptide solution (5 µL) was added and incubated for 30 minutes at RT, followed by the addition of 5 µL of a mixture of AlphaScreen Streptavidin donor beads and Nickel Chelate acceptor beads in AlphaScreen assay buffer (20 µg/mL final). The contents were incubated for 60-120 minutes at RT in the dark, followed by measurement of luminescence on a BMG Labtech Pherastar plate reader (Software Ver. 5.30 R3, Firmware Ver. 1.21). The data was plotted in Prism Ver 7.01 (GraphPad Software, Inc.) and fitted to a Log(inhibitor) v/s response – variable slope model in order to obtain IC50 values.
# T2 sequence (Q9UPP1 37-483 limits assumed): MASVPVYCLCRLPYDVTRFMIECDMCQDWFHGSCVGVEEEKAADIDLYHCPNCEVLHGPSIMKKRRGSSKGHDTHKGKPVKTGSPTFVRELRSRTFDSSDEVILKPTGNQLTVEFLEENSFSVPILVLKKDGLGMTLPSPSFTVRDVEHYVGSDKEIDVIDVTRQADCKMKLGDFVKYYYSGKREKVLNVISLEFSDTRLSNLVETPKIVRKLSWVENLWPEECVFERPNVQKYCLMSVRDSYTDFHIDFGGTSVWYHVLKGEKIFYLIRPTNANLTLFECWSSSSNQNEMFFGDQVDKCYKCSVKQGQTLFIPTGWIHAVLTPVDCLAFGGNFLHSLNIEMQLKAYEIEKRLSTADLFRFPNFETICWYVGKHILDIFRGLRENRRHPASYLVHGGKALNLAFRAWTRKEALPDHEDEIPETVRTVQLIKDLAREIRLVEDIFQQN
Compound,IC50 [1] [µM],IC50 (KDM5A_c1 (M1-L801)) [µM],IC50 (KDM7B (PHD-JmjC)) [µM]
"CCCCc1oc2ccccc2c1C(=O)c1ccc(OCCCN(C)C)cc1 [Compound 1a, (2-Butylbenzofuran-3-yl)(4-(3-(dimethylamino)propoxy)phenyl)methanone]",484 ± 82,> 1000,> 100
"CCCCc1oc2ccccc2c1C(=O)c1ccc(OCCC[N+](C)(C)C)cc1.[I-] [Compound 2a, 3-(4-(2-Butylbenzofuran-3-carbonyl)phenoxy)-N,N,N-trimethylpropan-1-aminium iodide]",4300 ± 163,80 ± 29,120 ± 32
